Consider five compounds from ChEMBL document CHEMBL1201862, “PubChem BioAssay data set” (2004).

Assay [1] addresses FAD-linked sulfhydryl oxidase ALR (Homo sapiens, UniProt P55789). Description: inhibitors of human ALR sulfhydryl oxidase, dose response, biochemical, H2O2 detection, luminescence, cherry-pick (AID 493248).
In assay [2] the target is T1, Methionyl-tRNA synthetase, putative (Trypanosoma brucei brucei, UniProt Q38C91).
T1 sequence (Q38C91 whole entry): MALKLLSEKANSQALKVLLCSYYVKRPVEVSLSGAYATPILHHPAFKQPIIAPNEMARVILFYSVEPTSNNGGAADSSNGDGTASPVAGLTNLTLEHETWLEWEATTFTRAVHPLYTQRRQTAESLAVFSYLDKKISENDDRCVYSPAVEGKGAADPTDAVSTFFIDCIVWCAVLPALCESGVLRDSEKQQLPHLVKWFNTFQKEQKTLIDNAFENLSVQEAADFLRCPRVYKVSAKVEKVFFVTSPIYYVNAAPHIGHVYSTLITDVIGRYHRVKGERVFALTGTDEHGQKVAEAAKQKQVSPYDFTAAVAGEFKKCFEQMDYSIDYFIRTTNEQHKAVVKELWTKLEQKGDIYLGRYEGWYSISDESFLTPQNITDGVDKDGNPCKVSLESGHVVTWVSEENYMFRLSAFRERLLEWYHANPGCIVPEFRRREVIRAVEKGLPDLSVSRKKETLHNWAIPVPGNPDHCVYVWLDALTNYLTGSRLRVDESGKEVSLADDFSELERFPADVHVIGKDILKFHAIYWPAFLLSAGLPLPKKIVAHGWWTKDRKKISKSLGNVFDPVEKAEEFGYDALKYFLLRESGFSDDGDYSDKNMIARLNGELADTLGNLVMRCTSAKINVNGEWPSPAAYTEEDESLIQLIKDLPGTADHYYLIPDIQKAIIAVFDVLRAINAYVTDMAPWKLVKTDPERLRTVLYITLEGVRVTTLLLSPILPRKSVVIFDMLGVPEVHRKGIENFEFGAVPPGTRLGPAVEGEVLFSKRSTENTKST
The format is functional, Trypanosoma brucei brucei strain 927/4 GUTat10.1.

Assay [3] can be described thus: Counterscreen for inhibitors of Trypanosoma brucei methionyl tRNA synthetase (MetRS): Luminescence-based cell-based high throughput dose response assay to identify compounds that are cytotoxic to Jurkat human T lymphocyte cells. The format is functional.
In assay [4] the target is T1, Methionyl-tRNA synthetase, putative. The assay is classed as functional, Trypanosoma brucei brucei strain 927/4 GUTat10.1. The source holds these as a separate data set.
Assay [5] in a line: Late stage counterscreen for inhibitors of Trypanosoma brucei methionyl tRNA synthetase (MetRS): Luminescence-based cell-based high throughput dose response assay to identify compounds that are cytotoxic to Jurkat human T lymphocyte cells. The assay is classed as functional.
The target in assay [6] is T2, Rac GTPase-activating protein 1 (Homo sapiens, UniProt Q9H0H5).
T2 sequence (Q9H0H5 whole entry): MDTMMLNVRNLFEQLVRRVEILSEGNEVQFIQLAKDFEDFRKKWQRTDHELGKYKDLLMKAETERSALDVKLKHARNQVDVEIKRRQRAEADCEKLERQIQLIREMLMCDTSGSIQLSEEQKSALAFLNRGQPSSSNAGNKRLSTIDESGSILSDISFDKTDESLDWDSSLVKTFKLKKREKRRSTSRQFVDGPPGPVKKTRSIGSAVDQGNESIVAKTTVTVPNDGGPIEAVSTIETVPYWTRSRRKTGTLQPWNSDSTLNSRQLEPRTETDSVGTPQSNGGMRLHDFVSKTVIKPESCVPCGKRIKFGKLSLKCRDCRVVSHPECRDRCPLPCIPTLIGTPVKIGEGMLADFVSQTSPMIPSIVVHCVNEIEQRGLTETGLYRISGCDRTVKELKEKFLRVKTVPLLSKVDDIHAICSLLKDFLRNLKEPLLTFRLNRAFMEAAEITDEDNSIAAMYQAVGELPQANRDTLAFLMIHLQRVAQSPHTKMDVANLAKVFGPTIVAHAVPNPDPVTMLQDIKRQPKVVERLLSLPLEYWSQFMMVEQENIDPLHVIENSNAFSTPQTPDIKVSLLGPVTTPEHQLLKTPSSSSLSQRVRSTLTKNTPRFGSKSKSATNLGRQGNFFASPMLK
Put plainly: MgcRacGAP GTPase-activating activity inhibitors, confirmation, biochemical, ADP Hunter fluorescence, primary and confirmatory (AID 624330). The format is functional.

A further assay deals with fMet-Leu-Phe receptor (Homo sapiens, UniProt P21462). Description: FPR ligands, dose response (AID 519). The format is functional.
Another assay has as its target Major prion protein (Homo sapiens, UniProt P04156). The format is functional, cell-based.
In assay [7] the target is Endoplasmic reticulum aminopeptidase 1 (Homo sapiens, UniProt Q9NZ08). Description: ERAP1 aminopeptidase inhibitors, dose response, biochemical, cherry-pick, set 2, plate reader (AID 743314).
For assay [8], the system named is HEK293. Put plainly: NOD1 signaling inhibitors, primary screen, cell-based, luminescence, uHTS (AID 1578). The format is functional. The conditions noted are these: Homo sapiens.
For assay [9], the system named is HEK293. Description: cells. The format is functional, cell-based. Particulars: Homo sapiens.
The subject of assay [10] is HEK293. Description: cells. The assay is classed as functional, cell-based. Particulars: Homo sapiens. The source holds these as a separate data set.
In assay [11] the target is Nucleotide-binding oligomerization domain-containing protein 2 (Homo sapiens, UniProt Q9HC29). Description: NOD2 signaling inhibitors, cell-based, luminescence, uHTS, HEK293 (AID 1566). The assay is classed as functional.
For assay [12], the system named is HEK293. Description: NOD2 signaling inhibitors in MDP-stimulated cells, cell-based, uHTS, luminescence (AID 2001). The assay is classed as functional. Particulars: Homo sapiens.
Assay [13] in a line: inhibitors of intracellular T. cruzi replication, confirmation, NIH3T3 host cells, beta-gal luminescence (AID 2044).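 Further: intracellular parasites grown in NIH/3T3 mouse fibroblasts as host cells; luminescent beta-galactosidase reporter signal from transgenic T. cruzi replicating inside host cells; inhibitors lower the luminescence signal.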 The assay is classed as functional, cell-based.
The test system of assay [14] is HEK293. Description: cells. The format is functional, cell-based. The conditions noted are these: Homo sapiens. This is another data set of the same source.
The nature of assay [15]: cytotoxicity toward NIH3T3 fibroblasts, dose response, counter-screen, cell-based, ATP luminescence, mouse fibroblasts (AID 2010).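 Further: cells exposed to compound for about 90 hours before reading.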 The format is functional.
The target of a further assay is T3, CAAX prenyl protease 2 (Saccharomyces cerevisiae S288c, UniProt Q03530).
T3 sequence (Q03530 whole entry): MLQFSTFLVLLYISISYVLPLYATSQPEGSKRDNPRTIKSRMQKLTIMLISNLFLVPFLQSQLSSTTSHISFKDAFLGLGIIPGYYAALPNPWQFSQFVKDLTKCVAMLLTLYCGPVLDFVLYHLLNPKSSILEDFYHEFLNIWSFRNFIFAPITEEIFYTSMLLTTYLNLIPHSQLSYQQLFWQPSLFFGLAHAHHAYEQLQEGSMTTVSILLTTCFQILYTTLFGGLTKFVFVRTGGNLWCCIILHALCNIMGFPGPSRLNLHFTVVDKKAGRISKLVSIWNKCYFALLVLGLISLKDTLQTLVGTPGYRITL
The assay is classed as biochemical.

The test system of another assay is INS1. Description: beta cell apoptosis inhibitors, cytokine rescue, dose response, luminescence, retest (AID 449756).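 Further: cell death triggered by IL-1 beta plus TNF-alpha plus IFN-gamma mixture; protective hits raise ATP signal compared with cytokine alone wells.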 The assay is classed as functional, cell-based. Particulars: Rattus norvegicus.
Assay [16] can be described thus: Shn3 3'UTR reporter inhibitors, dose response, cell-based, Clone20 osteoblasts, firefly luciferase, cherry-picked (AID 624132).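 Further: firefly luciferase luminescence from reporter carrying the Shn3 3'UTR in osteoblasts.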 The assay is classed as functional.
The target of assay [17] is T4, Corticotropin-releasing factor receptor 2/Corticotropin-releasing factor-binding protein (Homo sapiens, UniProt P24387+Q13324).
T4 sequence (Q13324 whole entry): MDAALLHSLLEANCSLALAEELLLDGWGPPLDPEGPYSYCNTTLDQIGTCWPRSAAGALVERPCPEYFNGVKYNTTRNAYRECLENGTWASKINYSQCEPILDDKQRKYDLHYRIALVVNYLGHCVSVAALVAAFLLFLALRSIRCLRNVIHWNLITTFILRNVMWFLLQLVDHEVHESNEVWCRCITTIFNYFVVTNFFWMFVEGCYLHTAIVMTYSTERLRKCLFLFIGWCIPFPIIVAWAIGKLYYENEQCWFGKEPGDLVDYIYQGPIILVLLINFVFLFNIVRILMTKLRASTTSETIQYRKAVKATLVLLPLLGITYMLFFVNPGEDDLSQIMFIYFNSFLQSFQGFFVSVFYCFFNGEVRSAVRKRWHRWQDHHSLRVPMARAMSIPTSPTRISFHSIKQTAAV
T4 sequence (P24387 whole entry): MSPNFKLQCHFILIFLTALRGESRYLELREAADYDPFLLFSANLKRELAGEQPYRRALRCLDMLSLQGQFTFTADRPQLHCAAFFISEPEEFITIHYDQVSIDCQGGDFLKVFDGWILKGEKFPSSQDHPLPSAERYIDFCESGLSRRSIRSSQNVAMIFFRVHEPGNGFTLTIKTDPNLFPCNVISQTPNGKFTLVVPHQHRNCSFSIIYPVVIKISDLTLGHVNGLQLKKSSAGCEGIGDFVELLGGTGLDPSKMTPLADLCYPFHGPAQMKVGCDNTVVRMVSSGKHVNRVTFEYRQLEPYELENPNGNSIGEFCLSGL
Description: activators of CRF receptor 2 with binding protein – uHTS hits, confirmation (AID 602473). The assay is classed as functional. The conditions noted are these: read-out: EC50_Mean.

The target in a further assay is Protein Wnt-3a (Mus musculus, UniProt P27467). Put plainly: Wnt3a-driven reporter signaling inhibition, dose response, selectivity assay for Gli-SUFU antagonist project, Wnt-LIGHT cells, luminescence (AID 651570).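 Further: Wnt-LIGHT reporter cells stimulated with conditioned medium from Wnt3a-producing cells.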 The format is functional. The conditions noted are these: read-out: IC50_Mean.
A short description of assay [18]: reduction of endogenous Shn3 mRNA, dose response, qPCR, Clone20 cells, cherry-pick (AID 743415). The format is functional, cell-based.
The nature of assay [19]: reduction of Shn3 3'UTR firefly luciferase signal, dose response, Schnurri-3 inhibitor project, cell-based, Clone20 osteoblasts, cherry-pick, set 2 (AID 720490).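 Further: actives lower the luminescence signal as inhibitors.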 The assay is classed as functional.

Molecules are shown by their SMILES. The source made the active and inactive calls.

`Oc1c(Cl)cc(Cl)cc1CNc1nc2ccccc2[nH]1`: the AC50 in assay [1] is 0.587 µM (active). For the same compound, the IC50 in [2] is 0.488 µM (active); in [3] it was 83.3 µM (inactive); in assay [4], 0.661 µM (active); in assay [5], > 83.3 µM (inactive).

In the case of `CC(C)(C)CC(=O)Nc1ccc(Nc2ccccc2)cc1`, the IC50 in assay [6] is 88.6 µM (active). Further, on fMet-Leu-Phe receptor, the Ki is > 66.7 µM (inactive).

Consider `CCc1nc(SCC(=O)N2c3ccccc3Sc3ccccc32)c2ccccc2n1`, for which the IC50 at Major prion protein was 1.84 µM (active); in the assay “cells”, > 138 µM (inactive).

For the compound `CCc1cc(=O)oc2c(CN3CCN(C)CC3)c(O)ccc12`, in [7], the AC50 is 7.3 µM (active).

With `COc1ccccc1N1CCN(c2ncc(C(=O)N3CCN(c4cccc(Cl)c4)CC3)c3ccccc23)CC1`, the EC50 was 4.31 µM (active) in the assay with HEK293 [8]; 9.31 µM (active) in assay [11]; 2.29 µM (active) in assay [13]; > 30 µM (not active) in [15]; > 53 µM (inactive) in [17]. Also, the IC50 was 5.68 µM (active) with HEK293 [9]; > 20 µM (inactive) in the assay on HEK293 [10]; 4.46 µM (active) with HEK293 [12]; > 20 µM (inactive) in the assay with HEK293 [14]; 1.47 µM (active) at Protein Wnt-3a. The AC50 at CAAX prenyl protease 2 is 9.46 µM (active); with INS1 it was 3.93 µM (active); in assay [16], 0.572 µM (active); in assay [18], 30 µM (active); in assay [19], 1.81 µM (active).
